According to patent US4177269A, “Novel 17-esters of 17α-hydroxy gestogens, compositions containing such compounds, processes for their preparation and methods of treatment therewith” (Aktiebolaget Leo, priority 1976, dated 1979):

Key:
[1] = system: Ehrlich ascites tumour, ELD hyperdiploid; test: Ehrlich ascites tumour, ELD hyperdiploid (46 chromosomes), growth inhibition in mice; format: in vivo, SPF NMRI mice; conditions: one i.p. injection; for Mortality / Tumour weight Treated/Control: 50 mg/kg; for Tumour weight Treated/Control: 8th day
From the text: (§1) The experimental design and the interpretation of the results are in accordance with the standards set by the CCNSC (Cancer Chemotherpy Reports, January 1959 and December 1962).
Ehrlich ascites tumour, ELD hyperdiploid
Experimental animals: SPF NMRI mice.
Tumour implant: 2 × 10^6 tumour cells i.p.
(§2) Therapy: One injection i.p. on the day following implanta-
(§3) Termination: The animals are killed on the 8th day.
Evaluation: Weight of tumours of test animals compared with
those of control animals.

[2] = system: Walker carcinosarcoma 256; test: Walker carcinosarcoma 256 tumour growth inhibition in rats; format: in vivo, Sprague-Dawley rats; parameters: ED50: unit: mg/kg; conditions: daily p.o. for 5 days, dose causing 50 percent reduction of tumour size, killed 9th day
From the text: (§4) LD50 is the dose that causes a 50 percent lethality of the animals, and ED50 is the dose that causes a 50 percent reduction of tumour size.
as §1
(§5) Walker carcinosarcoma 256.
(§6) Experimental animals: Sprague-Dawley rats.
(§7) Tumour implant: Tumour pieces with 2-4 mm diameter, sub-
(§8) Therapy: Daily p.o. administration for 5 days starting on
(§9) the day following implantation.
(§10) Termination: The animals are killed on the 9th day.
(§11) Evaluation: Weights of tumours of test animals are compared
(§12) with those of control animals.

[3] = as above; format: in vivo, Sprague-Dawley rats; parameters: ED50: unit: mg/kg; conditions: rat, in vivo, po, daily p.o. for 5 days; for LD50: dose causing 50 percent lethality; for selectivity ratio: read-out: T.I. (LD50/ED50)
From the text: as §4, §1, §5, §6, §7, §8, §9, §10, §11, §12

[4] = molecular target: T1, rabbit uterus cytosol progesterone receptor (Oryctolagus cuniculus, UniProt P06186); test: Relative affinity to rabbit uterus cytosol progesterone receptor (3H-progesterone competition); format: binding; conditions: compared to progesterone; 50% competition with 3H-progesterone; 16-18 hours at 4° C.
T1 construct: One ml portions of the supernatant (rabbit uterus cytosol) were pipetted into small centrifuge tubes of glass; from tissue; host or cells: uterus cytosol (105,000×g supernatant) of female rabbits pretreated with polyestradiol phosphate
T1 sequence (P06186 1-930): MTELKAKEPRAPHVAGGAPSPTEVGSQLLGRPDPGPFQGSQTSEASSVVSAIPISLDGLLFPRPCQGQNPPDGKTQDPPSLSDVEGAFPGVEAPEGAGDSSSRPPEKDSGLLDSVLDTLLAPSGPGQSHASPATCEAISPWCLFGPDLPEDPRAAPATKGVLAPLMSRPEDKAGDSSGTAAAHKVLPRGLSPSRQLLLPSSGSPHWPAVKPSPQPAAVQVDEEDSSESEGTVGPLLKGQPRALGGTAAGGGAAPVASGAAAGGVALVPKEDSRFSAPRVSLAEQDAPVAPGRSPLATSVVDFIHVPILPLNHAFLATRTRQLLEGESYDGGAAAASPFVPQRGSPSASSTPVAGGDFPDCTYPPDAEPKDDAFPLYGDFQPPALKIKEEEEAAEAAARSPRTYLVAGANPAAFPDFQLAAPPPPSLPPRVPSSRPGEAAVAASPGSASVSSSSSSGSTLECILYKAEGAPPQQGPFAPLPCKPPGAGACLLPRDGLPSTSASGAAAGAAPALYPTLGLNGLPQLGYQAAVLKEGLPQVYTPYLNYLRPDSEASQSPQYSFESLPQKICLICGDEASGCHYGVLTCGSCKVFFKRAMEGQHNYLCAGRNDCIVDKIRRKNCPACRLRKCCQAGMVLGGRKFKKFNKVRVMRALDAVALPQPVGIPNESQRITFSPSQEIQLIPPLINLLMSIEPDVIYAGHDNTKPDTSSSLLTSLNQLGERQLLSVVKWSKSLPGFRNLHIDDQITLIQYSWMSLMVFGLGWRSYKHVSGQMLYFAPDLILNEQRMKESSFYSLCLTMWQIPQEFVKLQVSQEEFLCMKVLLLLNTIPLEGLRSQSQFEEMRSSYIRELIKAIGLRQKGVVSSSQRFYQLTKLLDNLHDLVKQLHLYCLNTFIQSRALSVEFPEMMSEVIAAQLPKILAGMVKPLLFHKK
Method: This example illustrates the compound's relative affinity to rabbit uterus cytosol progesterone receptor compared with progesterone. The method used for this purpose is a modification of methods already described by Kontula, K. et al. (Acta Endocrinol. 78 (1975) 574) and Terenius, L. (Steroids 23 (1974) 909) among others.
Female rabbits (3-4 pounds) from Knut Larsen, Uddevalla, Sweden, were injected i.m. with 1 mg Estradurin (polyestradiol phosphate, 1 mg/ml saline, AB Leo, Sweden). After one week, the animals were killed and the uteri were immediately removed, chilled and cut free from connective tissues. All the following operations were performed at 0°-4° C. The uteri were cut into small pieces and washed several times with 3 vol. of buffer at pH 7.4 containing 50 MM TRIS-HCl, 1.5 mM EDTA, 3 mM NaN3, 2 mM dithiothreitol, and 25% glycerol (by vol.). The tissue was homogenized in the same buffer (3 vol.) with four 15-s bursts at rheostat setting 36-37 of an Ultra Turrax (Janke and Kunkel KG, Staufen, The Federal Republic of Germany). The homogenate was centifuged in a Sorvall GLC-2 centrifuge for 15 min at 600×g. The supernatanate was recentrifuged at 105,000×g for 60 min in a Beckman ultracentrifuge model LB-65-B with rotor SW 56.
One ml portions of the supernatant (rabbit uterus cytosol) were pipetted into small centrifuge tubes of glass and were kept at -70° C. until used. The protein content was determined by the method of Lowry (J. Biol. Chem. 193 (1951) 265).
10.0 mg of each compound was dissolved in 10.0 ml 99.5% ethanol. 100 μl of this standard solution was diluted to 5.0 ml ethanol/glycerol 1:1 (v/v). The ethanol was evaporated by blowing air at 40° C. on the solution. The volume was then adjusted to 5.0 ml by adding buffer without glycerol.
The compounds were diluted with glycerol/buffer 1:1 to final concentrations between 10^-8 -10^-5 M in total 300 μl incubation media. 100 μl of each compound and of each dilution were incubated in small centrifuge tubes (2 ml) together with 100 μl (10 pg) ^3 H-progesterone (1,2,6,7-3H-progesterone, 47.8 Ci/mMol, The Radiochemical Centre, Amersham, England) and 100 μl cytosol adjusted with buffer to a final concentration of about […]. The incubations were carried out for 16-18 hours at 4° C.
The separation of bound from free radioactivity was carried out at 0° C. using the dextran coated charcoal technique (DCC). To each incubation tube was added 0.5 ml DCC-suspension (0.05% dextran-70, Pharmacia, Uppsala, Sweden and 0.5% Norit A, Sigma, Saint Louis, Missouri, U.S.A.) The tubes were agitated 2-3 times during 10 minutes whereupon they were centrifuged at 100×g for five minutes. The supernatantes were decanted directly into Scintillation vials (polyethene, Packard) containing 10 ml InstaGel (Packard). The radioactivity was counted in a Philip's liquid scintillation spectrometer Model PW 4510/00 with external standard and automatic quenching correction.
To incubation tubes were added 100 μl cytosol, 100 μl ^3 H-progesterone (10 pg) and 100 μl of different dilutions of non-radioactive progesterone in glycerol/buffer 1:1 ranging from 0-10^4 pg/100 μl. The tubes were incubated parallel with the compounds described above. The radioactivity was calculated by substracting the counted radioactivity in the incubation tubes with the radioactivity counted in incubations tubes in which the cytosol was replaced with buffer (100 μl).
The concentration of non-radioactive progesterone [P]i which competes for 50% of bound radioactive progesterone was calculated from the standard curve constructed [B] i/[B] o=0.5 where [B]i is the bound radioactivity at different concentrations of non-radioactive progesterone and [B]o is the bound radioactivity at progesterone concentration zero.
In the same manner, curves were constructed for each compound X and the concentration for each compound which competes for 50% with bound ^3 H-progesterone ([X]50) was calculated. […]

[5] = system: Hepatome AH 130; test: Hepatome AH 130 tumour growth inhibition in rats; format: in vivo, Sprague-Dawley rats; parameters: ED50: unit not given here; conditions: one i.p. injection, dose causing 50 percent reduction of tumour size, killed 8th day
From the text: as §4, §1, §6
(§13) Tumour implant: 5 × 10^6 tumour cells i.p.
as §2, §3, §11, §12

[6] = Hepatome AH 130 tumour growth inhibition in rats; format: in vivo, Sprague-Dawley rats; parameters: ED50: unit not given here; conditions: rat, in vivo, ip, one i.p. injection; for LD50: dose causing 50 percent lethality, column head not given; for selectivity ratio: read-out: T.I. (LD50/ED50)
From the text: as §4, §1, §6, §13, §2, §3, §11, §12

Structure (SMILES)	Mortality [1]	Tumour weight Treated/Control [1]	ED50 [2]	LD50 [3]	selectivity ratio [3]	relative binding affinity (RBA) [4]	ED50 [5]	LD50 [6]	selectivity ratio [6]	antitumour activity ([1]; result in words)
CC(=O)[C@@]1(OC(=O)COC(=O)CCCc2ccc(N(CCCl)CCCl)cc2)CC[C@H]2[C@@H]3CCC4=CC(=O)CC[C@]4(C)[C@H]3CC[C@@]21C [Compound 3:2, 17α-/4-(4-(N,N-bis(2-chloroethyl)amino)phenyl)butanoyloxyacetoxy/pregn-4-ene-3,20-dione]	0/12	1%	3	> 250 mg/kg	> 83	0.7%	100	> 1000 mg/kg	> 10	
CC(=O)[C@@]1(OC(=O)CCCOC(=O)CCCc2ccc(N(CCCl)CCCl)cc2)CC[C@H]2[C@@H]3CCC4=CC(=O)CC[C@]4(C)[C@H]3CC[C@@]21C [Compound 3:3]			2	40 mg/kg	20	0.6%	6	180 mg/kg	30	exhibit antitumour activity
CC(=O)[C@@]1(OC(=O)COC(=O)Cc2ccc(N(CCCl)CCCl)cc2)CC[C@H]2[C@@H]3CCC4=CC(=O)CC[C@]4(C)[C@H]3CC[C@@]21C [3:1, 17α-/4-(N,N-bis(2-chloroethyl)amino)phenylacetoxyacetoxy/pregn-4-ene-3,20-dione]	1/12	3%	8	> 250 mg/kg	> 31	6.6%	3	> 250 mg/kg	> 83	
